Like-named read-outs stand apart in the source and are kept apart here.
Assays:
[1] = molecular target: T1, HSV-1 protease (assemblin) (Human herpesvirus 1, UniProt P10210); assay: Enzymatic assay for HSV-1 protease (assemblin) inhibition (FP assay / HPLC assay); format: biochemical
T1 construct: encoding residues 1-288 of HSV-1 UL26 open reading frame and 32 heterologous amino acid; 6xHis (N); made in house
Procedure: Enzymatic Assay for HSV-1 Protease (Assemblin) Inhibition
Assemblin protease activity was determined using fluorescence polarization (FP). The fluorescent substrate was biotin-gamma-aminobutyrate -[…]-DTAF, based on the HSV-1release cleavage site. […] A change in molecular size of fluorescent substrate molecule, which was increased using avidin as a reaction stop reagent, allowed cleavage to be measured by FP. Potential protease inhibitors were dissolved in DMF and then diluted 5-fold in assay buffer. […] The enzyme was diluted to 21.3 ug/mL in assay buffer (1M NaCitrate, 50 mM NaPhosphate, pH 7.4, 100mM NaCl, 20% glycerol, 2 mM TECP) and 48.5 uL were added to each well. Following a 30 minute incubation at room temperature, 10 uL of 62.5 ug/mL substrate were added. After about 90 minute incubation at room temperature, 50 uL of 2 mg/mL avidin in phosphate buffer (50 mM Naphosphate, 100 mM NaCl, pH 7.4) were added to each well. The plates were read by a fluorescence polarization plate reader. Inhibitor potency was determined by comparison with incubations lacking inhibitor.
Assays were performed with the peptide substrate H-His-Thr-Tyr-Leu-Gln-Ala-Ser-Glu-Lys-Phe-Lys-Met-Trp-Gly-NH2 (Bachem). This substrate is a HSV-1-amide UL26 Open Reading Frame (242-255) and is derived from the release site of HSV-1 protease. HSV-1protease cleaves between alanine and serine. The product […] was quantified on HPLC using fluorescence detection of tryptophan residue. Enzyme was diluted to 4.3 ug/mL in assay buffer (1 M NaCitrate, 50 mM NaPhosphate, pH 7.3, 100 mM NaCl, 20% glycerol, 2 mM TCEP) and 48.5 uL were added to the tubes. Potential protease inhibitors were dissolved in DMF and then diluted 10-fold in assay buffer. 6.5 uL of inhibitor solution were added to each tube. Following a 30-minute incubation at room temperature, 10 uL of substrate in phosphate buffer (50 mM Naphosphate, 100 mM NaCl, pH 7.4) were added to all tubes. The final concentration of the substrate in the reaction mixtures was 10 uM. After a 15-minute incubation at room temperature, assays were quenched using 50 uL of 50% TCA. Inhibitor potency was determined by comparison with incubations lacking inhibitor, which under these conditions gave about 20% cleavage of substrate.
Recombinant HSV-1 Protease
HSV-1 protease was purified from baculovirus expressing a DNA construction encoding residues 1-288 of HSV-1 UL26 open reading frame and 32 heterologous amino acid. The construction also encoded six additional histidine residues at the amino terminus of the protease. These additional histidine residues provided an affinity ligand by which the protein was purified using Ni-NTA agarose gel (Qiagen). The purified protease was stored in stock solution (20 mM HEPES buffer, pH 8.5, containing 20% (v/v) glycerol). This stock was diluted with assay buffer to adequate concentration of enzymatic assay.
A specific substrate was synthesized based on the cleavage specificity of HSV-1 protease at the “release site” of the assembly protein (DiIanni, C. L., et al., J. Biol. Chem. 268, 2048, (1993)). The assembly protein release site has the sequence, HTYLQA*SEKFKMWG. The substrate used was biotin-gamma -aminobutyrate-HTYLQA*SERFRIK-DTAF which was prepared by standard peptide synthetic methods such as that described in Bodansky and Bodansky, “The Practice of Peptide Synthesis” (1984), and was stored as a stock solution at 2.5 mg/mL in DMF. This was diluted to 62.5 ug/mL with phosphate buffer (50 mM Naphosphate, […], pH 7.4) just before use.
The substrate was HSV-1-amide UL 26 Open Reading Frame (242-255), obtained from Bachem (Product No. M-2160).
An assay buffer (1 M NaCitrate, 50 mM NaPhosphate, pH 7.4, 100 mM NaCl, 20% glycerol, 2 mM TCEP) was used to dilute stock solutions of enzyme and inhibitors.

HSV-1 = assay: Antiviral assay: plaque reduction assay, HSV-1 in vero cells; format: cell-based, HSV-1 (vero cells, African green monkey kidney cell); conditions: Human alphaherpesvirus 1, Vero, 72 h, read-out: ANTIVIRUS EC50
Description: These complimentary assays tested the ability of a compound to inhibit the production of new virus and the toxicity of the compound to the host cells. It was important that both assays be performed simultaneously in order to compare the results directly since toxicity may indirectly reduce viral replication.
The antiviral assay was estimated by plaque reduction assay performed by following methods. 1×10^5 of vero cells (African green monkey kidney cell) in 48-well plates were over-night cultured and the medium of this culture was replaced with 200 μl of 2% FBS DMEM containing 2× the desired final cordon of test compounds or no compound as control. The cultures were added 50 μl of 2% FBS DMEM containing with about 50 plaque forming units of HSV-1and next 250 μl of 2% FBS DMEM containing 1% methylcellulose. These infected cultures were incubated at 37° C., 5% CO2 for 3 days until plaques was visible. The cells were fixed and stained simultaneously with 0.025% crystalviolet in 5% formalin solution and plaque were counted. The concentration of test compound which conferred 50% inhibition of plaque formation compared to no compound control was interpolated from the observed data and defined as IC50.

[2] = molecular target: T2, Human leukocyte elastase (HLE) (Homo sapiens, UniProt P08246); assay: Human leukocyte elastase assay; format: biochemical; conditions: 50 μM compound; 30 minutes pre-incubation
T2 construct: purchased CALBIOCHEM
T2 sequence (P08246 30-267): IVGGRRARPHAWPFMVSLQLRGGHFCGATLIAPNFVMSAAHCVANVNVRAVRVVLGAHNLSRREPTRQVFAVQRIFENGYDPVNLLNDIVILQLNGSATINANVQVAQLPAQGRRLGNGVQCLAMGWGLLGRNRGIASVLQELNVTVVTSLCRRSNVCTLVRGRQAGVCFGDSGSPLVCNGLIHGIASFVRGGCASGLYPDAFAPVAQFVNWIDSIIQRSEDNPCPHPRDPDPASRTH
Procedure: Human Leukocyte Elastase Assay
Human leukocyte elastase (HLE) (CALBIOCHEM) was dissolved in saline at 1 mg/ml and further diluted 1/10 in assay buffer (0.2 M Tris, pH 8.0) before use.
0.75 μl of test compound in DMF (or DMF alone), 50 μl of assay buffer and 50 μl of enzyme were added to 96 well plate, mixed and pre-incubated for 30 minutes at ambient temperature. Reaction was initiated by addition of 50 μl of 2.5 mM methoxysuccinyl-Ala-Ala-Pro-Val-p-nitroanilide (Sigma; 25 mM in DMSO diluted 1/10 in assay buffer before use). The increase in absorbance at 405 nm was monitored for 3 min. with BIO-RAD model 3550 microplate reader.

[3] = molecular target: T3, Bovine pancreas α-chymotripsin (Bos taurus, UniProt P00766); assay: Chymotripsin assay; format: biochemical; conditions: 50 μM compound; 30 minutes pre-incubation; read-out: INHIBITION AT 50 μM CHYMOTRYPSIN (%)
T3 construct: purchased Sigma type II; host or cells: bovine pancreas
Procedure: The chymotripsin assay was modified from the method of Delmar, et al. (Anal. Biochem. 99, 316-320 (1979)). Bovine pancreas α-chymotripsin(type II, Sigma) was dissolved in 0.001 N HCl at 1 mg/ml and further diluted 1/1000 in assay buffer (0.1 M Tris, pH 7.8 containing 0.1 M CaCl2) before use. 0.75 μl of test compound in DMF (or DMF alone), 50 μl of assay buffer and 50 μl of enzyme were added to 96 wells plates, mixed and pre-incubated for 30 minutes at ambient temperature. Reaction was initiated by addition of 50 μl of 0.2 mM N-succinyl-Ala-Ala-Pro-Phe-p-nitroanilide (Sigma; 2 mM in DMSO diluted 1/10 in assay buffer before use). The increase in absorbance at 405 nm was monitored for 3 minutes with BIO-RAD model 3550 microplate-reader.

[4] = recombinant HSV-1 protease, 30 minute pre-incubation at room temperature, FP or HPLC format not stated, read-out: ENZYME IC50

T1 sequence (P10210 1-288): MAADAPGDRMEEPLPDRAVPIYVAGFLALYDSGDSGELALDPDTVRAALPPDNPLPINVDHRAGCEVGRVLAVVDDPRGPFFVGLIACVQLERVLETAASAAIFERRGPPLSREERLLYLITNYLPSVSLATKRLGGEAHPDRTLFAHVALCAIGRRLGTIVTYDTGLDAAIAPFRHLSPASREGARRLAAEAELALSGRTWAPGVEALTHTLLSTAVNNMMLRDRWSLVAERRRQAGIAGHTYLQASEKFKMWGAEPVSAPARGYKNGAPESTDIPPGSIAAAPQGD

SMILES | IC50 [1, 4] [µM] | EC50 (HSV-1) [µM] | inhibition at 50 µM [2] [%] | inhibition at 50 µM [3] [%] | IC50 [1] [µM]
Cc1cccc2nc(N(C)Cc3ccccc3)oc(=O)c12 [CC2, reference compound] | 3.2 | 7.5 | 101 | 101 | –
Cc1cccc2nc(N3CCN(C)CC3)oc(=O)c12 [CC5, reference compound] | – | > 50 | 100 | 98 | 28
Cc1c(NC(=O)OC(C)(C)C)ccc2nc(N(C)C(C)C)oc(=O)c12 [Compound 10, 6-[[(1,1-Dimethylethoxy)carbonyl]amino]-5-methyl-2-[isopropyl(methyl)amino]-4H-3,1-benzoxazin-4-one] | 7.8 | 3.3 | 0 | 0 | –
Cc1c(NC(=O)OC(C)(C)C)ccc2nc(N3CCOCC3)oc(=O)c12 [Compound 6, 6-[[(1,1-Dimethylethoxy)carbonyl]amino]-5-methyl-2-(4-morpholyl)-4H-3,1-benzoxazin-4-one] | 3.7 | 2.9 | 0 | 0 | –
Cc1c(NC(=O)OC(C)(C)C)ccc2nc(N3CCCC4CCCCC43)oc(=O)c12 (centres unmarked) [Compound 11, 6-[[(1,1-Dimethylethoxy)carbonyl]amino]-5-methyl-2-(decahydroquinolyl)-4H-3,1benzoxazin-4-one] | 5.5 | 2.8 | 0 | 0 | –
C=CCN(C)c1nc2ccc(NC(=O)OC(C)(C)C)c(C)c2c(=O)o1 [Compound 7, 6-[[(1,1-Dimethylethoxy)carbonyl]amino]-5-methyl-2-[allyl(methyl)amino]-4H-3,1-benzoxazin-4-one] | 3.4 | 4.1 | 0 | 6.9 | –
Cc1c(NC(=O)OC(C)(C)C)ccc2nc(N(C)CCc3c[nH]c4ccccc34)oc(=O)c12 [Compound 5, 6-[[(1-Dimethylethoxy)carbonyl]amino]-5-methyl-2-[methyl[2-(3-indolyl)ethyl]amino]-4H-3,1-benzoxazin-4-one] | 3.5 | 3.2 | 0 | 13.1 | –
Cc1c(NC(=O)OC(C)(C)C)ccc2nc(N(C)Cc3ccc(N(C)C)cc3)oc(=O)c12 [Compound 4, 6-[[(1,1-Dimethylethoxy)carbonyl]amino]-5-methyl-2-[[[4-(dimethylamino)phenyl]methyl]methylamino]-4H-3,1-benzoxazin-4-one] | 1.3 | 0.05 | 0 | 0 | –
